Assay results taken from patent US20080286387A1, “Standardized method for recovering enriched Indian date extract (IDE), properties of IDE and applications thereof” (priority 2007, published 2008).

Tested on: 5-alpha-reductases
Assay: 5-alpha-reductase inhibition
Format: biochemical
Conditions: at a workable concentration of 9 μg/ml; FIG. 4

inhibition of 5-alpha-reductase: ≤ 13%
Compound: CC(C)(C)NC(=O)[C@H]1CC[C@H]2[C@@H]3CC[C@H]4NC(=O)C=C[C@]4(C)[C@H]3CC[C@]12C [Finasteride]
